Target: T1, Gag-Pol polyprotein [1148-1435] (Human immunodeficiency virus 1, UniProt P04585)
T1 construct: 1148-1435
Assay: DNA Strand-Transfer Activity Assay
Conditions: pH 7.3; 22 °C
Experimental: In the strand-transfer assay, the biotinylated donor DNA was bound to streptavidin-coated plates, and integrase was added to each well to allow processing of the donor DNA. Serially diluted compounds and DIG-tagged target DNA were then added to each well, and 3-end joining reaction was allowed to proceed for 30 min. Signal was detected using horseradishperoxidase-conjugated anti-Digoxin antibody through chemiluminescence measurement.

With COc1c2c(c(O)c3ncc(Cc4ccc(F)cc4)cc13)C(=O)N(C)C2 [3-[(4-fluorophenyl)methyl]-9-hydroxy-5-methoxy-7-methyl-6H,7H,8H-pyrrolo[3,4-g]quinolin-8-one] the IC50 was 100 nM.

Reference: BindingDB's records for doi:10.1016/j.bmcl.2008.12.079 (Gilead Sciences, 2009)
